Data as given in patent US9988400B2 (Genentech, Inc., priority 2013, dated 2018).

Target: T1, HEK cells stably transfected with tetracycline inducible hNR1 and hNR2A (Homo sapiens, UniProt Q05586+Q12879)
T1 construct: expressed in transfected cells; host or cells: HEK cells, stably transfected, tetracycline/doxycycline inducible
Experiment: Assay 1: Cell-Based Assay, cytosolic calcium response to positive allosteric modulators (with 30 μM glycine and 300 nM L-glutamate, EC30)
Conditions: for EC50: cytosolic calcium response, with 30 μM glycine and 300 nM L-glutamate (EC30), — = no plateau was reached; for Max %: responses scaled relative to 100 μM L-glutamate maximal response (100%) and 0 μM L-glutamate (0%)
Procedure, shortened: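 Cells induced 24 h with 7.5 μg mL^−1 doxycycline plus 500 μM (+)-ketamine, loaded 60 min at 37 °C with calcium dye in Mg-free HBSS (1.8 mM Ca, probenecid, 10 μM (+)-ketamine, pH 7.15). Peak RFU over 5 min after compound addition, scaled to 100 μM L-glutamate (100%) and 0 μM (0%); four-parameter Hill fit for EC50, max % if no plateau.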

T1 sequence (Q12879 23-1464, other chains not shown): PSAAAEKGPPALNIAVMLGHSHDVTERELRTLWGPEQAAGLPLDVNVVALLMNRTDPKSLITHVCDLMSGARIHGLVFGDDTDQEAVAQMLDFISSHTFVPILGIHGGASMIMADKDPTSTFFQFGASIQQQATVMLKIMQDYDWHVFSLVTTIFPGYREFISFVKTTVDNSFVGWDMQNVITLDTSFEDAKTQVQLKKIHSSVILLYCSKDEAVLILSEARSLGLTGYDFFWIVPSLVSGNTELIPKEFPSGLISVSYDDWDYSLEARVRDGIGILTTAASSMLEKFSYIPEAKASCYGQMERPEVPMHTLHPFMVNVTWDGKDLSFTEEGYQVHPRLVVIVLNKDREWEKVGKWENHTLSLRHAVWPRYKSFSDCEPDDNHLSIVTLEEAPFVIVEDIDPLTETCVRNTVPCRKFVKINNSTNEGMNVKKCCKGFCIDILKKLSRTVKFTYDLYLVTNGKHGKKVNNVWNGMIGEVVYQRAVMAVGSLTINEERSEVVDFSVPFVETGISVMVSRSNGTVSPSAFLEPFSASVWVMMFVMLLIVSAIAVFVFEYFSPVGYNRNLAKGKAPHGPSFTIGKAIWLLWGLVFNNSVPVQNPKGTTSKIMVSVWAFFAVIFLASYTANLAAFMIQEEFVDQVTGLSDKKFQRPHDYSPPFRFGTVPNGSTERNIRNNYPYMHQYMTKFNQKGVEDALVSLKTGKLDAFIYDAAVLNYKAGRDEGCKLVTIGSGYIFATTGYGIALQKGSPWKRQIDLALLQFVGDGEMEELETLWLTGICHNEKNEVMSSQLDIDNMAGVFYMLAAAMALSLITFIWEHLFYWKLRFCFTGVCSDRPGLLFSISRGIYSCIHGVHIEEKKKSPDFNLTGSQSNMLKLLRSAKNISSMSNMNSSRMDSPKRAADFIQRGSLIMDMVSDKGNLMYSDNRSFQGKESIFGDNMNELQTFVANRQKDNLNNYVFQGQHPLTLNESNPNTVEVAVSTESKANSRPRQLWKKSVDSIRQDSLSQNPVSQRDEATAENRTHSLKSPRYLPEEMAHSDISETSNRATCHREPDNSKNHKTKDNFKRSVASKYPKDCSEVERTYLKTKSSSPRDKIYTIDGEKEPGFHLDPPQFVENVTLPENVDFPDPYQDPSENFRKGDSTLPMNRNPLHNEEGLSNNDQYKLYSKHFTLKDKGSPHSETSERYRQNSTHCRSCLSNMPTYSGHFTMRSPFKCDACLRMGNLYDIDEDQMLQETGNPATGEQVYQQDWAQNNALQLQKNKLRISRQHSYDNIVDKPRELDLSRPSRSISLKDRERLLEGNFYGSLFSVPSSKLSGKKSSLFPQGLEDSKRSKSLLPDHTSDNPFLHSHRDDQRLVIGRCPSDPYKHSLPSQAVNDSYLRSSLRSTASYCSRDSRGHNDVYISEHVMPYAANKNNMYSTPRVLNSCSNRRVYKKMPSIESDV

Row | Structure (SMILES) | EC50 (Table 2) [nM] | Max % (Table 2) [%] | EC50 (Table 3) [nM]
1 | Cc1sc2nc(Cn3nc(C(F)(F)F)cc3Cl)cc(=O)n2c1C1CC1C#N (single isomer, unassigned) [compound 125] | – | – | 27.8
2 | Cc1sc2nc(Cn3nc(C(F)(F)F)cc3Cl)cc(=O)n2c1[C@@H]1C[C@@H]1C#N (single isomer, unassigned) [compound 126] | – | – | 249
3 | Cc1sc2nc(Cn3nc(C(F)(F)F)cc3Cl)cc(=O)n2c1C1CC1CO (single isomer, unassigned) [compound 136] | – | – | 39.1
4 | Cc1sc2nc(Cn3nc(C(F)(F)F)cc3Cl)cc(=O)n2c1C1CC1CO (single isomer, unassigned) [compound 137] | – | – | 420
5 | Cc1sc2nc(Cn3nc(C(F)(F)F)cc3Cl)cc(=O)n2c1C1CC1C (single isomer, unassigned) [compound 154] | – | – | 504
6 | Cc1sc2nc(Cn3nc(C(F)(F)F)cc3Cl)cc(=O)n2c1C1CC1C (single isomer, unassigned) [compound 155] | – | – | 61.6
7 | N#CC1CC1c1c(C(F)(F)F)sc2nc(Cn3nc(C(F)(F)F)cc3Cl)cc(=O)n12 (single isomer, unassigned) [compound 207] | – | – | 7.4
8 | N#CC1CC1c1c(C(F)(F)F)sc2nc(Cn3nc(C(F)(F)F)cc3Cl)cc(=O)n12 (single isomer, unassigned) [compound 208] | – | – | 370
9 | N#CC1CC1c1c(Cl)sc2nc(Cn3nc(C(F)(F)F)cc3Cl)cc(=O)n12 (single isomer, unassigned) [compound 266] | – | – | 24.9
10 | O=c1cc(Cn2nc(C(F)(F)F)cc2Cl)nc2sc(C(F)(F)F)c([C@@H]3C[C@H]3CO)n12 (single isomer, unassigned) [compound 269] | – | – | 83.1
11 | O=c1cc(Cn2nc(C(F)(F)F)cc2Cl)nc2sc(C(F)(F)F)c(C3CC3CO)n12 (single isomer, unassigned) [compound 270] | – | – | 518
12 | Cc1sc2nc(Cn3ccc(C(F)(F)F)n3)cc(=O)n2c1C1CC1C#N (single isomer, unassigned) [compound 272] | – | – | 252
13 | Cc1sc2nc(Cn3ccc(C(F)(F)F)n3)cc(=O)n2c1C1CC1C#N (single isomer, unassigned) [compound 273] | – | – | 2080
14 | Cc1sc2nc(Cn3nc(C(F)(F)F)cc3Br)cc(=O)n2c1[C@@H]1C[C@@H]1C#N (single isomer, unassigned) [compound 274] | – | – | 12
15 | Cc1sc2nc(Cn3nc(C(F)(F)F)cc3Br)cc(=O)n2c1C1CC1C#N (single isomer, unassigned) [compound 275] | – | – | 73.7
16 | N#CC1CC1c1c(C(F)(F)F)sc2nc(Cn3nc(C(F)(F)F)cc3Cl)c(F)c(=O)n12 (single isomer, unassigned) [compound 276] | – | – | 36.4
17 | N#CC1CC1c1c(C(F)(F)F)sc2nc(Cn3nc(C(F)(F)F)cc3Cl)c(F)c(=O)n12 (single isomer, unassigned) [compound 277] | – | – | 155

Other lines, results leading:

Row | EC50 (Table 2) [nM] | Max % (Table 2) [%] | EC50 (Table 3) [nM] | Structure (SMILES)
18 | 1300 | 150 | – | CCN(Cc1cc(=O)n2c3c(sc2n1)CCC3CO)c1ccc(F)cc1 (single isomer, unassigned) [Example 8.3, 6-[(N-ethyl-4-fluoro-anilino)methyl]-1-(hydroxymethyl)-2,3-dihydro-1H-cyclopenta[3,4]thiazolo[1,4-a]pyrimidin-8-one]
19 | 569 | 164 | – | CCN(Cc1cc(=O)n2c3c(sc2n1)CCC3CO)c1ccc(F)cc1 (single isomer, unassigned) [Example 8.4, 6-[(N-ethyl-4-fluoro-anilino)methyl]-1-(hydroxymethyl)-2,3-dihydro-1H-cyclopenta[3,4]thiazolo[1,4-a]pyrimidin-8-one]
20 | 1600 | 183 | – | CCN(Cc1cc(=O)n2c(C(O)CCO)c(C)sc2n1)c1ccc(F)cc1 (single isomer, unassigned) [Example 12.3, 3-(1,3-dihydroxypropyl)-7-[(N-ethyl-4-fluoro-anilino)methyl]-2-methyl-thiazolo[3,2-a]pyrimidin-5-one]
21 | 591 | 176 | – | CCN(Cc1cc(=O)n2c(C(O)CCO)c(C)sc2n1)c1ccc(F)cc1 (single isomer, unassigned) [Example 12.4, 3-(1,3-dihydroxypropyl)-7-[(N-ethyl-4-fluoro-anilino)methyl]-2-methyl-thiazolo[3,2-a]pyrimidin-5-one]
22 | – | 67.6 | – | Cc1cc(C2CC2)n(Cc2cc(=O)n3c([C@@H]4C[C@H]4CO)c(C)sc3n2)n1 (single isomer, unassigned) [Example 15.13, 7-[(5-cyclopropyl-3-methyl-pyrazol-1-yl)methyl]-3-[2-(hydroxymethyl)cyclopropyl]-2-methyl-thiazolo[3,2-a]pyrimidin-5-one]
23 | 3100 | 159 | – | Cc1cc(C2CC2)n(Cc2cc(=O)n3c([C@@H]4C[C@H]4CO)c(C)sc3n2)n1 (single isomer, unassigned) [Example 15.14, 7-[(5-cyclopropyl-3-methyl-pyrazol-1-yl)methyl]-3-[2-(hydroxymethyl)cyclopropyl]-2-methyl-thiazolo[3,2-a]pyrimidin-5-one]
24 | – | 61.9 | – | Cc1sc2nc(Cn3nc(C4CC4)cc3C)cc(=O)n2c1[C@@H]1C[C@H]1CO (single isomer, unassigned) [Example 15.15, 7-[(3-cyclopropyl-5-methyl-pyrazol-1-yl)methyl]-3-[2-(hydroxymethyl)cyclopropyl]-2-methyl-thiazolo[3,2-a]pyrimidin-5-one]
25 | 17700 | 115 | – | Cc1sc2nc(Cn3nc(C4CC4)cc3C)cc(=O)n2c1C1CC1CO (single isomer, unassigned) [Example 15.16, 7-[(3-cyclopropyl-5-methyl-pyrazol-1-yl)methyl]-3-[2-(hydroxymethyl)cyclopropyl]-2-methyl-thiazolo[3,2-a]pyrimidin-5-one]
26 | 25300 | – | – | Cc1sc2nc(Cc3cccc(C(F)(F)F)c3F)cc(=O)n2c1C(C)O (single isomer, unassigned; enantiomer 1) [Example 27.11, 7-(2-fluoro-3-(trifluoromethyl)benzyl)-3-(1-hydroxyethyl)-2-methyl-5H-thiazolo[3,2-a]pyrimidin-5-one (enantiomer 1)]
27 | 40800 | – | – | Cc1sc2nc(Cc3cccc(C(F)(F)F)c3F)cc(=O)n2c1C(C)O (single isomer, unassigned; enantiomer 2) [Example 27.12, 7-(2-fluoro-3-(trifluoromethyl)benzyl)-3-(1-hydroxyethyl)-2-methyl-5H-thiazolo[3,2-a]pyrimidin-5-one (enantiomer 2)]
28 | 9600 | 63 | – | Cc1sc2nc(COc3ccc(F)cc3)cc(=O)n2c1C(=O)NCC#N [Example 1.1, N-(cyanomethyl)-7-((4-fluorophenoxy)methyl)-2-methyl-5-oxo-5H-thiazolo[3,2-a]pyrimidine-3-carboxamide]
29 | – | 92 | – | CNC(=O)c1c(C)sc2nc(COc3ccc(F)cc3)cc(=O)n12 [Example 1.2, 7-(4-Fluorophenoxymethyl)-N,2-dimethyl-5-oxo-5H-[1,3]thiazolo[3,2-a]pyrimidine-3-carboxamide]
30 | – | 45 | – | Cc1sc2nc(COc3ccc(F)cc3)cc(=O)n2c1C(=O)N1CCC1 [Example 1.3, 3-[(Azetidin-1-yl)carbonyl]-7-(4-fluorophenoxymethyl)-2-methyl-5H-[1,3]thiazolo[3,2-a]pyrimidin-5-one]
31 | 11200 | 59.5 | – | CCNC(=O)c1c(C)sc2nc(COc3ccc(F)cc3)cc(=O)n12 [Example 1.4, N-ethyl-7-(4-fluorophenoxymethyl)-2-methyl-5-oxo-5H-[1,3]thiazolo[3,2-a] pyrimidine-3-carboxamide]
32 | 23000 | 51.4 | – | Cc1sc2nc(COc3ccc(F)cc3)cc(=O)n2c1C(=O)NCC(F)(F)F [Example 1.5, 7-(4-Fluorophenoxymethyl)-2-methyl-5-oxo-N-(2,2,2-trifluoroethyl)-5H-[1,3]thiazolo[3,2-a]pyrimidine-3-carboxamide]
33 | 31600 | 64 | – | CNC(=O)c1c(C)sc2nc(COc3ccc(F)c(F)c3)cc(=O)n12 [Example 1.6, 7-(3,4-Difluorophenoxymethyl)-N,2-dimethyl-5-oxo-5H-[1,3]thiazolo[3,2-a] pyrimidine-3-carboxamide]
34 | 27000 | 44.8 | – | CCNC(=O)c1csc2nc(COc3ccc(F)cc3)cc(=O)n12 [Example 1.7, N-ethyl-7-(4-fluorophenoxymethyl)-5-oxo-5H-[1,3]thiazolo[3,2-a]pyrimidine-3-carboxamide]
35 | 26300 | 47.4 | – | Cc1sc2nc(COc3ccc(F)cc3)cc(=O)n2c1C(N)=O [Example 1.8, 7-((4-fluorophenoxy)methyl)-2-methyl-5-oxo-5H-thiazolo[3,2-a]pyrimidine-3-carboxamide]
36 | – | 99.5 | – | Cc1sc2nc(COc3ccc(F)cc3)cc(=O)n2c1C(=O)NO [Example 1.9, 7-((4-fluorophenoxy)methyl)-N-hydroxy-2-methyl-5-oxo-5H-thiazolo[3,2-a] pyrimidine-3-carboxamide]
37 | – | 44 | – | Cc1sc2nc(COc3ccc(F)cc3)cc(=O)n2c1C(=O)NC(C)C [Example 1.10, 7-(4-Fluorophenoxymethyl)-2-methyl-5-oxo-N-(propan-2-yl)-5H-[1,3]thiazolo[3,2-a] pyrimidine-3-carboxamide]
38 | – | 73 | – | Cc1sc2nc(COc3ccc(F)cc3)cc(=O)n2c1C(=O)NCCO [Example 1.11, 7-(4-Fluorophenoxymethyl)-N-(2-hydroxyethyl)-2-methyl-5-oxo-5H-[1,3]thiazolo[3,2-a]pyrimidine-3-carboxamide]
